We go through 27 compounds from patent US20120157471A1, “BENZIMIDAZOLE DERIVATIVES” (PFIZER INC., priority 2009, published 2012).

The target of assay [1] is T1, human Smo (amino acids 181-787) (Homo sapiens, UniProt Q99835).
T1 construct: expressed in transfected cells; membrane preparation
The assay can be described thus: Smo radioligand competition binding assay (displacement of 3H-PF-03451358 from HEK293 membranes). To be noted: for inhibition at 0.05 µM: 0.05 μM test compound, displacement of 3H-PF-03451358, read-out: SMO % inh. @ 0.05 μM; for IC50: radioligand competition binding. The gist of the method:
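Membranes (40 μg protein/well) from HEK293 expressing murine Igk-leader-fused Smo 181-787 incubated 2 h at room temperature with 3 nM 3H-PF-03451358 in Tris pH 7.5/NaCl/MgCl2/EDTA/BSA buffer; filter-bound counts by scintillation. Nonspecific binding with 30 μM cold PF-03451358; IC50 from four-parameter fit of % inhibition.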

For another assay, the system named is Gli-Luc/MEF cells (Smo). The assay can be described thus: Gli-Luc/MEF assay (Shh-stimulated luciferase reporter under the Gli response element). The assay is classed as cell-based, mouse. The settings on record: Mus musculus, MEF, 48 h. The gist of the method:
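Mouse Gli-Luc/MEF cells dosed with compound (3-fold series, […]) plus 2 μg/mL recombinant mouse Shh, then incubated 48 h at 37° C, 5% CO2. Bright-Glo luminescence read; IC50 calculated from inhibition of Shh-stimulated luciferase.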

T1 sequence (Q99835 181-787): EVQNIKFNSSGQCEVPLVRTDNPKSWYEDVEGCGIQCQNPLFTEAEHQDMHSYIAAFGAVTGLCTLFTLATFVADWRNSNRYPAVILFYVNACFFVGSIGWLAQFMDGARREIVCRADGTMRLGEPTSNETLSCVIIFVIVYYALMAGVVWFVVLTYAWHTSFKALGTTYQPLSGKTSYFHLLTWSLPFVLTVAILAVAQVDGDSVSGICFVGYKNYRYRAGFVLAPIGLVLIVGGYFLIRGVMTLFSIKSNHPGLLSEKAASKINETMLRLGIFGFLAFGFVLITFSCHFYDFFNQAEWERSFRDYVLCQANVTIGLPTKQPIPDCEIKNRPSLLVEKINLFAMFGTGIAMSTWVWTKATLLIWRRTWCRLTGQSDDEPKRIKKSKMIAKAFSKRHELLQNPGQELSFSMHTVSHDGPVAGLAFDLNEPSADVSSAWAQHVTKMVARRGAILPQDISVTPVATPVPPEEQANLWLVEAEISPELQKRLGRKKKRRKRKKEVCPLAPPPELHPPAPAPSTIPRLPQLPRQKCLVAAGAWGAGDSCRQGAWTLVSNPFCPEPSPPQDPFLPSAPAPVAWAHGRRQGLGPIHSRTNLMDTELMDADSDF

In general, IC50 refers to the concentration at which inhibition is half-maximal. Lower therefore signals higher potency. With `Cn1c(-c2cc(N3CCC(O)(c4cncnc4)C3)ncc2Cl)nc2ccccc21` (stereo not shown) [Example A-128, 1-[5-chloro-4-(1-methyl-1H-benzimidazol-2-yl)pyridin-2-yl]-3-pyrimidin-5-ylpyrrolidin-3-ol], the inhibition at 0.05 µM in assay [1] is 54%. This compound also had an IC50 in the assay on Gli-Luc/MEF cells (Smo) of 80 nM.

Take `Cn1c(-c2cc(N3C[C@@H](O)[C@@H](O)C3)ncc2Cl)nc2ccccc21` [Example A-129, (3R,4S)-1-[5-chloro-4-(1-methyl-1H-benzimidazol-2-yl)pyridin-2-yl]pyrrolidine-3,4-diol]: the inhibition at 0.05 µM in assay [1] is 53%. In the assay with Gli-Luc/MEF cells (Smo), the half-inhibitory concentration (IC50) was found to be 105 nM.

For the compound `Cn1c(-c2cc(N3CCCN(C4=NCCC(=O)N4)CC3)ncc2Cl)nc2ccccc21` [Example A-130, 2-{4-[5-chloro-4-(1-methyl-1H-benzimidazol-2-yl)pyridin-2-yl]-1,4-diazepan-1-yl}-5,6-dihydropyrimidin-4(3H)-one], the inhibition at 0.05 µM in assay [1] was found to be 53%. This compound also showed an IC50 in the assay with Gli-Luc/MEF cells (Smo) of 129 nM.

As to `Cn1c(-c2cc(N3CC(c4ncccn4)C3)ncc2Cl)nc2ccccc21` [Example A-131, 2-[5-chloro-2-(3-pyrimidin-2-ylazetidin-1-yl)pyridin-4-yl]-1-methyl-1H-benzimidazole], the inhibition at 0.05 µM in assay [1] is 52%. For the same compound, the midpoint of inhibition in the assay on Gli-Luc/MEF cells (Smo), the IC50, lay at 161 nM.

With `Cn1cnnc1C1CCN(c2cc(-c3nc4ccccc4n3C)c(Cl)cn2)CC1` [Example A-132, 2-{5-chloro-2-[4-(4-methyl-4H-1,2,4-triazol-3-yl)piperidin-1-yl]pyridin-4-yl}-1-methyl-1H-benzimidazole], the inhibition at 0.05 µM in assay [1] was determined as 51%. This compound gave an IC50 in the assay with Gli-Luc/MEF cells (Smo) of 199 nM.

Regarding `COC(=O)N1CCN(c2cc(-c3nc4ccccc4n3C)ccn2)CC1` [Example A-141, methyl 4-[4-(1-methyl-1H-benzimidazol-2-yl)pyridin-2-yl]piperazine-1-carboxylate], in assay [1], the inhibition at 0.05 µM was determined as 96% and the IC50 stood at 34 nM. Besides, 27 nM corresponded to half-maximal inhibition in the assay with Gli-Luc/MEF cells (Smo) (IC50).

For `CNC(=O)N1CCN(c2cc(-c3nc4ccccc4n3C)ccn2)CC1` [Example A-144, N-methyl-4-[4-(1-methyl-1H-benzimidazol-2-yl)pyridin-2-yl]piperazine-1-carboxamide], in assay [1], the inhibition at 0.05 µM turned out to be 78% and the IC50 was found to be 90 nM. In the assay with Gli-Luc/MEF cells (Smo), this compound displayed an IC50 of 159 nM.

`CN(CCNS(C)(=O)=O)c1cc(-c2nc3ccccc3n2C)c(Cl)cn1` [Example A-145, N-(2-{[5-chloro-4-(1-methyl-1H-benzimidazol-2-yl)pyridin-2-yl](methyl)amino}ethyl)methanesulfonamide]: the inhibition at 0.05 µM in assay [1] was 97%. The IC50 (in assay [1]; in the assay with Gli-Luc/MEF cells (Smo)) was 22 nM throughout.

In the case of `Cn1c(-c2cc(N3C[C@H]4C[C@@H]3CN4S(C)(=O)=O)ncc2Cl)nc2ccccc21` [Example A-146, 2-{5-chloro-2-[(1R,4R)-5-(methylsulfonyl)-2,5-diazabicyclo[2.2.1]hept-2-yl]pyridin-4-yl}-1-methyl-1H-benzimidazole], in assay [1], the inhibition at 0.05 µM came out at 75% and the IC50 came to 202 nM. The compound further showed an IC50 in the assay with Gli-Luc/MEF cells (Smo) of 92 nM.

On to `CCNC(=O)NC1CN(c2cc(-c3nc4ccccc4n3C)c(Cl)cn2)C1` [Example A-148, 1-{1-[5-chloro-4-(1-methyl-1H-benzimidazol-2-yl)pyridin-2-yl]azetidin-3-yl}-3-ethylurea], for which the inhibition at 0.05 µM in assay [1] stood at 95%. For the same compound, the half-maximal inhibitory concentration (IC50) in assay [1] is 21 nM; with Gli-Luc/MEF cells (Smo) it was 9 nM.

As to `CN(C1CN(c2cc(-c3nc4ccccc4n3C)c(Cl)cn2)C1)S(C)(=O)=O` [Example A-149, N-{1-[5-chloro-4-(1-methyl-1H-benzimidazol-2-yl)pyridin-2-yl]azetidin-3-yl}-N-methylmethanesulfonamide], in assay [1], the inhibition at 0.05 µM is 95% and the IC50 came to 14 nM. In the assay on Gli-Luc/MEF cells (Smo), half-maximal inhibition (IC50) was put at 8 nM.

On to `COC(=O)N(C)C1CN(c2cc(-c3nc4ccccc4n3C)c(Cl)cn2)C1` [Example A-150, methyl {1-[5-chloro-4-(1-methyl-1H-benzimidazol-2-yl)pyridin-2-yl]azetidin-3-yl}methylcarbamate], for which, in assay [1], the inhibition at 0.05 µM came to 87% and the IC50 is 56 nM. In addition, the IC50 in the assay on Gli-Luc/MEF cells (Smo) amounted to 23 nM.

With `CNC(=O)N(C)C1CN(c2cc(-c3nc4ccccc4n3C)c(Cl)cn2)C1` [Example A-151, 1-{1-[5-chloro-4-(1-methyl-1H-benzimidazol-2-yl)pyridin-2-yl]azetidin-3-yl}-1,3-dimethylurea], in assay [1], the inhibition at 0.05 µM came out at 83%. The results for the IC50 (in assay [1]; in the assay with Gli-Luc/MEF cells (Smo)) were 90 nM and 26 nM, respectively.

For `COC(=O)NC1CCN(c2cc(-c3nc4ccccc4n3C)c(Cl)cn2)C1` (stereo not shown) [Example A-152, methyl {1-[5-chloro-4-(1-methyl-1H-benzimidazol-2-yl)pyridin-2-yl]pyrrolidin-3-yl}carbamate], in assay [1], the inhibition at 0.05 µM came to 87% and the IC50 was 69 nM. In the assay on Gli-Luc/MEF cells (Smo), this compound gave an IC50 of 21 nM.

For `Cn1c(-c2cc(N3CCC(NS(C)(=O)=O)C3)ncc2Cl)nc2ccccc21` (stereo not shown) [Example A-153, N-{1-[5-chloro-4-(1-methyl-1H-benzimidazol-2-yl)pyridin-2-yl]pyrrolidin-3-yl}methanesulfonamide], in assay [1], the inhibition at 0.05 µM came to 93% and the IC50 came out at 23 nM. For the same compound, the IC50 with Gli-Luc/MEF cells (Smo) was found to be 15 nM.

On to `CC(=O)N1CCCN(c2cc(-c3nc4ccccc4n3C)ccn2)CC1` [Example A-154, 2-[2-(4-acetyl-1,4-diazepan-1-yl)pyridin-4-yl]-1-methyl-1H-benzimidazole], for which, in assay [1], the inhibition at 0.05 µM came to 90% and the IC50 is 33 nM. The compound also had an IC50 in the assay on Gli-Luc/MEF cells (Smo) of 20 nM.

Regarding `CNC(=O)N1CCCN(c2cc(-c3nc4ccccc4n3C)ccn2)CC1` [Example A-155, N-methyl-4-[4-(1-methyl-1H-benzimidazol-2-yl)pyridin-2-yl]-1,4-diazepane-1-carboxamide], in assay [1], the inhibition at 0.05 µM was 97% and the concentration for half-maximal inhibition (IC50) was 22 nM. The midpoint of inhibition in the assay on Gli-Luc/MEF cells (Smo), the IC50, lay at 12 nM.

On to `COC(=O)N1CCCN(c2cc(-c3nc4ccccc4n3C)ccn2)CC1` [Example A-156, methyl 4-[4-(1-methyl-1H-benzimidazol-2-yl)pyridin-2-yl]-1,4-diazepane-1-carboxylate], for which, in assay [1], the inhibition at 0.05 µM amounted to 95% and the half-inhibitory concentration (IC50) is 23 nM. In the assay on Gli-Luc/MEF cells (Smo), this compound came in with an IC50 of 11 nM.

For `C[C@@H]1CN(c2cc(-c3nc4ccccc4n3C)c(Cl)cn2)CCN1` [Example A-157, 2-{5-chloro-2-[(3R)-3-methylpiperazin-1-yl]pyridin-4-yl}-1-methyl-1H-benzimidazole], in assay [1], the inhibition at 0.05 µM amounted to 95% and the IC50 was 35 nM. In the assay with Gli-Luc/MEF cells (Smo), this compound showed an IC50 of 24 nM.

In the case of `C[C@@H]1CN(c2cc(-c3nc4ccccc4n3C)c(Cl)cn2)CCN1S(C)(=O)=O` [Example A-158, 2-{5-chloro-2-[(3R)-3-methyl-4-(methylsulfonyl)piperazin-1-yl]pyridin-4-yl}-1-methyl-1H-benzimidazole], in assay [1], the inhibition at 0.05 µM was determined as 99%. The IC50 in assay [1] stood at 9 nM; with Gli-Luc/MEF cells (Smo), 2 nM.

`CC(=O)N1CCN(c2cc(-c3nc4ccccc4n3C)c(Cl)cn2)C[C@H]1C` [Example A-159, 2-{2-[(3R)-4-acetyl-3-methylpiperazin-1-yl]-5-chloropyridin-4-yl}-1-methyl-1H-benzimidazole]: the inhibition at 0.05 µM in assay [1] was 100%. Besides, the IC50 in assay [1] is 10 nM; in the assay on Gli-Luc/MEF cells (Smo), 4 nM.

For `C[C@H]1CN(c2cc(-c3nc4ccccc4n3C)c(Cl)cn2)CCN1` [Example A-160, 2-{5-chloro-2-[(3S)-3-methylpiperazin-1-yl]pyridin-4-yl}-1-methyl-1H-benzimidazole], in assay [1], the inhibition at 0.05 µM was 98% and the IC50 is 16 nM. Moreover, in the assay on Gli-Luc/MEF cells (Smo), inhibition was half-maximal at 7 nM (IC50).

On to `C[C@H]1CN(c2cc(-c3nc4ccccc4n3C)c(Cl)cn2)CCN1S(C)(=O)=O` [Example A-161, 2-{5-chloro-2-[(3S)-3-methyl-4-(methylsulfonyl)piperazin-1-yl]pyridin-4-yl}-1-methyl-1H-benzimidazole], for which, in assay [1], the inhibition at 0.05 µM was 98% and the IC50 came out at 9 nM. Moreover, the midpoint of inhibition in the assay with Gli-Luc/MEF cells (Smo), the IC50, lay at 3 nM.

With `CC(=O)N1CCN(c2cc(-c3nc4ccccc4n3C)c(Cl)cn2)C[C@@H]1C` [Example A-162, 2-{2-[(3S)-4-acetyl-3-methylpiperazin-1-yl]-5-chloropyridin-4-yl}-1-methyl-1H-benzimidazole], the inhibition at 0.05 µM in assay [1] worked out at 91%. Moreover, the IC50 in assay [1] came to 7 nM; with Gli-Luc/MEF cells (Smo), 5 nM.

As for `CN(CCCO)c1cc(-c2nc3ccccc3n2C)c(Cl)cn1` [Example A-163, 3-{[5-chloro-4-(1-methyl-1H-benzimidazol-2-yl)pyridin-2-yl](methyl)amino}propan-1-ol], the inhibition at 0.05 µM in assay [1] came to 98%. For the same compound, the IC50 is 17 nM in assay [1] and 14 nM with Gli-Luc/MEF cells (Smo).

Consider `CN(CCO)c1cc(-c2nc3ccccc3n2C)c(Cl)cn1` [Example A-164, 2-{[5-chloro-4-(1-methyl-1H-benzimidazol-2-yl)pyridin-2-yl](methyl)amino}ethanol], for which, in assay [1], the inhibition at 0.05 µM is 97% and the IC50 was found to be 15 nM. This compound showed an IC50 in the assay on Gli-Luc/MEF cells (Smo) of 14 nM.

Turning to `Cn1c(-c2cc(NCCS(N)(=O)=O)ncc2Cl)nc2ccccc21` [Example A-165, 2-{[5-chloro-4-(1-methyl-1H-benzimidazol-2-yl)pyridin-2-yl]amino}ethanesulfonamide], in assay [1], the inhibition at 0.05 µM was found to be 62% and the IC50 came out at 374 nM. This compound also yielded an IC50 with Gli-Luc/MEF cells (Smo) of 280 nM.
